# Reference: paper PMC3573010, “Bacillus megaterium Has Both a Functional BluB Protein Required for DMB Synthesis and a Related Flavoprotein That Forms a Stable Radical Species” (PLoS ONE, 2013)
# Columns and labels:
# BluB(Bm) = molecular target: T1, BluB(Bm) (Priestia megaterium, UniProt D5DCL0); assay: HPLC of DMB formed; assay type: biochemical; conditions: O2 required; […] Tris-HCl pH […] NaCl, […] DTT; room temperature; FMN reduced in situ by NADH
# T1 construct: native N-terminus MNSFTN by printed primer
# T1 sequence (D5DCL0 1-217): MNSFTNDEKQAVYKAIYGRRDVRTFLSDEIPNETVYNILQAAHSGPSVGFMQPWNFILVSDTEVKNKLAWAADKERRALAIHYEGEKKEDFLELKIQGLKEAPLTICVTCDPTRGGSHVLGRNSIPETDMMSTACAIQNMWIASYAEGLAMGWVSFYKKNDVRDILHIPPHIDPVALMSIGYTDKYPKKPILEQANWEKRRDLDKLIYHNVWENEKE
# BluB(Rc) = molecular target: T2, BluB(Rc) (Rhodobacter capsulatus, UniProt D5AV14); assay: HPLC of DMB formed; stopped-flow detection of 4a-peroxyflavin at […] nm; assay type: biochemical; conditions: O2 required; 20 mM Tris-HCl pH 8.0, 100 mM NaCl; FMN reduced by NADH (HPLC) or dithionite (stopped-flow)
# T2 construct: N-terminal His6 tag with thrombin site (pET14b), expressed in E. coli BL21star(DE3)pLysS, 25 kDa on SDS-PAGE; native N-terminus MNFEQT by printed primer
# CbiY(Bm) = molecular target: T3, CbiY(Bm) (Priestia megaterium, UniProt D5DG39); assay: UV-visible spectrum of purified holoprotein; heat release, HPLC and mass spectrometry; assay type: binding; conditions: non-covalently bound, co-purified
# T3 construct: native N-terminus MTIISQLK by primer
# T3 sequence (D5DG39 1-189): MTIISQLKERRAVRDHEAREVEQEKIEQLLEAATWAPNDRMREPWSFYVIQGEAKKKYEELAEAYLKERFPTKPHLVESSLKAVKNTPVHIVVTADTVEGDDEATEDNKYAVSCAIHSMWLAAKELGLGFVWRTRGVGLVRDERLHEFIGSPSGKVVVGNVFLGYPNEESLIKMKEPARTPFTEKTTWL
# T2 sequence (D5AV14 whole entry): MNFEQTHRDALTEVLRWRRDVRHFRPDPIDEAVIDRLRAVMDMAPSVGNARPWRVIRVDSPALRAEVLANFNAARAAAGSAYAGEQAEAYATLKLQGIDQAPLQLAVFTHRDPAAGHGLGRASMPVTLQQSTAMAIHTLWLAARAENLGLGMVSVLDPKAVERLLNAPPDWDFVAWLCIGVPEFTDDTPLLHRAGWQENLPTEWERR
SMILES,HPLC of DMB formed (BluB(Bm)),HPLC of DMB formed; stopped-flow detection of 4a-peroxyflavin at 380 nm (BluB(Rc)),"UV-visible spectrum of purified holoprotein; heat release, HPLC and mass spectro (CbiY(Bm))"
Cc1cc2c(cc1C)N(C[C@H](O)[C@H](O)[C@H](O)COP(=O)(O)O)c1[nH]c(=O)[nH]c(=O)c1N2 [FMNH2],DMB formation was observed in reaction mixtures containing either BluB(Rc) or BluB(Bm),"In the case of the BluB(Rc) enzyme, rapid formation of a peroxyflavin intermediate",–
Cc1cc2nc3c(=O)[nH]c(=O)nc-3n(C[C@H](O)[C@H](O)[C@H](O)COP(=O)(O)O)c2cc1C [FMN],–,–,The flavin cofactor could be removed from the holoenzyme by denaturing the protein
